The values below come from patent US20210253557A1, “SUBSTITUTED TRIAZOLE DERIVATIVES AND USES THEREOF” (Bayer Pharma Aktiengesellschaft, priority 2017, published 2021).

Structures are written as SMILES. Where a name gives a salt, the structure may show the parent alone.

In assay [1] the target is T1, human V1a receptor (Homo sapiens, UniProt P37288).
T1 construct: expressed in transfected cells; host or cells: CHO K1 (ATCC), also stably transfected with a modified aequorin
The assay is described as follows: Cellular in vitro assay for determining vasopressin receptor activity (V1a, aequorin luminescence). The assay is classed as cell-based. Particulars: for IC50: CHO cell line transfected with the human V1a receptor, [Arg8]-vasopressin at EC50 concentration, read-out: IC50 hV1a; for ratio IC50 hV2/hV1a: selectivity ratio of IC50 hV2 to IC50 hV1a.

The target of assay [2] is T2, human V2 receptor (Homo sapiens, UniProt P30518).
T2 construct: expressed in transfected cells; host or cells: CHO K1 (ATCC) expressing firefly luciferase under a CRE-responsive promoter
The assay can be described thus: Cellular in vitro assay for determining vasopressin receptor activity (V2, CRE-luciferase). Type of assay: cell-based. Particulars: CHO cell line transfected with the human V2 receptor; [Arg8]-vasopressin at EC50 concentration; read-out: IC50 hV2. The procedure, abridged:
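CHO K1 cells stably expressing the human V2 receptor and a CRE-driven firefly luciferase were plated the day before in DMEM/F12 with 2% FCS. Test compounds were added together with [Arg8]-vasopressin at its EC50 and incubated 3 h at 37 °C. Luciferase luminescence was read after Triton lysis and luciferin addition, giving IC50 values.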

T2 sequence (P30518 whole entry): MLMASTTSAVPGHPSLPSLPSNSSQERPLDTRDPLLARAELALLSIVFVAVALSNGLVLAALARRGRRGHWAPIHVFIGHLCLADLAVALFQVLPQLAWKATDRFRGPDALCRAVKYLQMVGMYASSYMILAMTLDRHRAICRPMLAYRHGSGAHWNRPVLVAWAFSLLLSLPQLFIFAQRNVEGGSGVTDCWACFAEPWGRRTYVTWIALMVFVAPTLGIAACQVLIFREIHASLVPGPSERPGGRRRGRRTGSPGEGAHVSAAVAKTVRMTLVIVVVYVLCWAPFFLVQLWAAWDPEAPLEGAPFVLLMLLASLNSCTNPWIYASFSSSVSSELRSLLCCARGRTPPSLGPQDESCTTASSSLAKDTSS
T1 sequence (P37288 whole entry): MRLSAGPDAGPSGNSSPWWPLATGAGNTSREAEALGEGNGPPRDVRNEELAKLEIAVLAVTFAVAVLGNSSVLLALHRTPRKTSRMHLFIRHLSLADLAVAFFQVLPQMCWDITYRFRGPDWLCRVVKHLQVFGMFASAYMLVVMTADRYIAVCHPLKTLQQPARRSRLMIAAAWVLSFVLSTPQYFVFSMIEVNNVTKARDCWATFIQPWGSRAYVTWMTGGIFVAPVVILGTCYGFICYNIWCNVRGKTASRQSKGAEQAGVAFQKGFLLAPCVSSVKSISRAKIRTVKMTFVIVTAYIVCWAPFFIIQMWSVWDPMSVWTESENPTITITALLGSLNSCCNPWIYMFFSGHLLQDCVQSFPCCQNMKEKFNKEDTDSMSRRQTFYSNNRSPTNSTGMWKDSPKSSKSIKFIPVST

One may read the IC50 as the point on the concentration scale where inhibition reaches its midpoint. On to `CCNC(=O)OCc1nc(Cn2nc(-c3ccc(Cl)cc3)n(C[C@H](O)C(F)(F)F)c2=O)nn1-c1ccccc1C(F)(F)F` [Example 49, {3-({3-(4-Chlorophenyl)-5-oxo-4-[(2S)-3,3,3-trifluoro-2-hydroxypropyl]-4,5-dihydro-1H-1,2,4-triazol-1-yl}methyl)-1-[2-(trifluoromethyl)phenyl]-1H-1,2,4-triazol-5-yl}methyl ethylcarbamate], for which, in assay [1], the IC50 amounted to 0.99 nM and the “ratio IC50 hV2/hV1a” value amounted to 16.9. Further, the IC50 in assay [2] worked out at 16.7 nM.

With `CCNC(=O)OCc1nc(Cn2nc(-c3ccc(Cl)cc3)n(C[C@H](OC(=O)NCC)C(F)(F)F)c2=O)nn1-c1ccccc1C(F)(F)F` [Example 50, (2S)-3-{3-(4-Chlorophenyl)-1-[(5-{[(ethylcarbamoyl)oxy]methyl}-1-[2-(trifluoromethyl)phenyl]-1H-1,2,4-triazol-3-yl)methyl]-5-oxo-1,5-dihydro-4H-1,2,4-triazol-4-yl}-1,1,1-trifluoropropan-2-yl ethylcarbamate], the IC50 in assay [1] turned out to be 0.95 nM; in assay [2], 22 nM. Further, in assay [1], the “ratio IC50 hV2/hV1a” value amounted to 23.0.

Regarding `COCCNC(=O)OCc1nc(Cn2nc(-c3ccc(Cl)cc3)n(C[C@H](O)C(F)(F)F)c2=O)nn1-c1ccccc1C(F)(F)F` [Example 51, {3-({3-(4-Chlorophenyl)-5-oxo-4-[(2S)-3,3,3-trifluoro-2-hydroxypropyl]-4,5-dihydro-1H-1,2,4-triazol-1-yl}methyl)-1-[2-(trifluoromethyl)phenyl]-1H-1,2,4-triazol-5-yl}methyl (2-methoxyethyl)-carbamate], in assay [1], the IC50 turned out to be 3.9 nM and the “ratio IC50 hV2/hV1a” value stood at 7.6. Besides, in assay [2], the IC50 stood at 29.7 nM.

Consider `NC(=O)OCc1nc(Cn2nc(-c3ccc(Cl)cc3)n(C[C@H](O)C(F)(F)F)c2=O)nn1-c1ccccc1C(F)(F)F` [Example 52, {3-({3-(4-Chlorophenyl)-5-oxo-4-[(2S)-3,3,3-trifluoro-2-hydroxypropyl]-4,5-dihydro-1H-1,2,4-triazol-1-yl}methyl)-1-[2-(trifluoromethyl)phenyl]-1H-1,2,4-triazol-5-yl}methyl Carbamate], for which, in assay [1], the IC50 worked out at 2.15 nM and the “ratio IC50 hV2/hV1a” value worked out at 6.5. Also, the IC50 in assay [2] was 14 nM.

For `C[C@H](NC(=O)OC(C)(C)C)c1nc(Cn2nc(-c3ccc(Cl)cc3)n(C[C@H](O)C(F)(F)F)c2=O)nn1-c1cccc(Cl)c1` [Example 56, tert-Butyl {(1S)-1-[1-(3-chlorophenyl)-3-({3-(4-chlorophenyl)-5-oxo-4-[(2S)-3,3,3-trifluoro-2-hydroxypropyl]-4,5-dihydro-1H-1,2,4-triazol-1-yl}methyl)-1H-1,2,4-triazol-5-yl]ethyl}Carbamate], in assay [1], the IC50 came to 286 nM and the “ratio IC50 hV2/hV1a” value is 0.1. Further, the IC50 in assay [2] was determined as 33.4 nM.

Consider `C[C@H](N)c1nc(Cn2nc(-c3ccc(Cl)cc3)n(C[C@H](O)C(F)(F)F)c2=O)nn1-c1cccc(Cl)c1` [Example 57, 2-({5-[(1S)-1-Aminoethyl]-1-(3-chlorophenyl)-1H-1,2,4-triazol-3-yl}methyl)-5-(4-chlorophenyl)-4-[(2S)-3,3,3-trifluoro-2-hydroxypropyl]-2,4-dihydro-3H-1,2,4-triazol-3-one hydrochloride], for which the IC50 in assay [1] amounted to 13.1 nM; in assay [2], 1.28 nM. For the same molecule, in assay [1], the “ratio IC50 hV2/hV1a” value was 0.1.

As for `COC(=O)N[C@@H](C)c1nc(Cn2nc(-c3ccc(Cl)cc3)n(C[C@H](O)C(F)(F)F)c2=O)nn1-c1cccc(Cl)c1` [Example 58, Methyl {(1S)-1-[1-(3-chlorophenyl)-3-({3-(4-chlorophenyl)-5-oxo-4-[(2S)-3,3,3-trifluoro-2-hydroxypropyl]-4,5-dihydro-1H-1,2,4-triazol-1-yl}methyl)-1H-1,2,4-triazol-5-yl]ethyl}Carbamate], in assay [1], the IC50 amounted to 21.4 nM and the “ratio IC50 hV2/hV1a” value is reported as 0.1. Moreover, the IC50 in assay [2] is 1.95 nM.

Regarding `NC1(c2nc(Cn3nc(-c4ccc(Cl)cc4)n(C[C@H](O)C(F)(F)F)c3=O)nn2-c2ccccc2Cl)CC1` [Example 76, 2-{[5-(1-Aminocyclopropyl)-1-(2-chlorophenyl)-1H-1,2,4-triazol-3-yl]methyl}-5-(4-chlorophenyl)-4-[(2S)-3,3,3-trifluoro-2-hydroxypropyl]-2,4-dihydro-3H-1,2,4-triazol-3-one hydrochloride], in assay [1], the IC50 turned out to be 0.48 nM and the “ratio IC50 hV2/hV1a” value stood at 8.3. Besides, in assay [2], the IC50 is 3.95 nM.

As to `CC(=O)NC1(c2nc(Cn3nc(-c4ccc(Cl)cc4)n(C[C@H](O)C(F)(F)F)c3=O)nn2-c2ccccc2Cl)CC1` [Example 77, N-{1-[1-(2-Chlorophenyl)-3-({3-(4-chlorophenyl)-5-oxo-4-[(2S)-3,3,3-trifluoro-2-hydroxypropyl]-4,5-dihydro-1H-1,2,4-triazol-1-yl}methyl)-1H-1,2,4-triazol-5-yl]cyclopropyl}acetamide], in assay [1], the IC50 was 6.5 nM and the “ratio IC50 hV2/hV1a” value is reported as 52.3. For the same molecule, in assay [2], the IC50 stood at 340 nM.

Regarding `CS(=O)(=O)NC1(c2nc(Cn3nc(-c4ccc(Cl)cc4)n(C[C@H](O)C(F)(F)F)c3=O)nn2-c2ccccc2Cl)CC1` [Example 78, N-{1-[1-(2-Chlorophenyl)-3-({3-(4-chlorophenyl)-5-oxo-4-[(2S)-3,3,3-trifluoro-2-hydroxypropyl]-4,5-dihydro-1H-1,2,4-triazol-1-yl}methyl)-1H-1,2,4-triazol-5-yl]cyclopropyl}methane sulfonamide], the figures for the IC50 in assay [1] and in assay [2] were 1.1 nM and 9.7 nM, respectively. For the same molecule, the “ratio IC50 hV2/hV1a” value in assay [1] is listed as 8.8.

On to `CN(C)C1(c2nc(Cn3nc(-c4ccc(Cl)cc4)n(C[C@H](O)C(F)(F)F)c3=O)nn2-c2ccccc2Cl)CC1` [Example 79, 5-(4-Chlorophenyl)-2-({1-(2-chlorophenyl)-5-[1-(dimethylamino)cyclopropyl]-1H-1,2,4-triazol-3-yl}methyl)-4-[(2S)-3,3,3-trifluoro-2-hydroxypropyl]-2,4-dihydro-3H-1,2,4-triazol-3-one], for which, in assay [1], the IC50 amounted to 1 nM and the “ratio IC50 hV2/hV1a” value is reported as 14.5. For the same molecule, the IC50 in assay [2] is 14.5 nM.

Take `O=C1CC[C@H](c2nc(Cn3nc(-c4ccc(Cl)cc4)n(C[C@H](O)C(F)(F)F)c3=O)nn2-c2ccccc2Cl)N1` [Example 101, 5-(4-Chlorophenyl)-2-({1-(2-chlorophenyl)-5-[(2R)-5-oxopyrrolidin-2-yl]-1H-1,2,4-triazol-3-yl}methyl)-4-[(2S)-3,3,3-trifluoro-2-hydroxypropyl]-2,4-dihydro-3H-1,2,4-triazol-3-one]: the IC50 in assay [1] was determined as 0.77 nM; in assay [2], 3.8 nM. Also, the “ratio IC50 hV2/hV1a” value in assay [1] is 4.9.

For `O=C1CC[C@@H](c2nc(Cn3nc(-c4ccc(Cl)cc4)n(C[C@H](O)C(F)(F)F)c3=O)nn2-c2ccccc2Cl)N1` [Example 102, 5-(4-Chlorophenyl)-2-({1-(2-chlorophenyl)-5-[(2S)-5-oxopyrrolidin-2-yl]-1H-1,2,4-triazol-3-yl}methyl)-4-[(2S)-3,3,3-trifluoro-2-hydroxypropyl]-2,4-dihydro-3H-1,2,4-triazol-3-one], in assay [1], the IC50 came to 0.25 nM and the “ratio IC50 hV2/hV1a” value was determined as 4.8. The IC50 in assay [2] was found to be 1.2 nM.

`O=C1CC[C@@H](c2nc(Cn3nc(-c4ccc(Cl)cc4)n(C[C@H](O)C(F)(F)F)c3=O)nn2-c2cnccc2Cl)N1` [Example 123, 5-(4-Chlorophenyl)-2-({1-(4-chloropyridin-3-yl)-5-[(2S)-5-oxopyrrolidin-2-yl]-1H-1,2,4-triazol-3-yl}methyl)-4-[(2S)-3,3,3-trifluoro-2-hydroxypropyl]-2,4-dihydro-3H-1,2,4-triazol-3-one]: in assay [1], the IC50 came out at 1.1 nM and the “ratio IC50 hV2/hV1a” value was 31.5. Besides, the IC50 in assay [2] was 34.5 nM.
